Test results reported in patent publication US9518038B2, “Condensation product of theanine derivative and carboxylic acid coumarin derivative, its intermediate, preparation method and use thereof” (SHANDONG YINGDONG YINGHAO BIOTECHNOLOGY, INC., priority 2012, dated 2016).

Key:
[1] = test system: Caski human cervical cancer cells; experiment: MTT growth inhibition, Caski cells; assay type: cell-based; conditions: Ca-Ski, 72 h after treatment, read-out: Drug concentration (IC50) at which 50% cancer cells survived
Nuclear β-catenin = experiment: Western Blotting, nuclear β-catenin level; assay type: cell-based; conditions: human liver cancer cells, Lewis lung cancer cells and other cancer cell lines and tumor tissues, read-out: Effective concentration (IC50) for inhibition of Nuclear β-catenin
Description: (§1) Antibodies: primary antibodies of VEGFR, EGFR, c-Met, K-Ras, H-Ras, Akt, NF-κB, Cyclin D1, ER-alpha, Dvl-1, Dvl-2, Dvl-3, MMP-9, MMP2, β-catenin, Bcl-2, Bax, p53, p21, E-cadherin and Caspase3 protein, purchased from American Cell Signaling Technology Company and Santa Cruz Technology Company; and H3 acetylation, H4 acetylation and HDAC (HDAC3, HDAC4 and the like) Antibody Sample Kits, purchased from Cell Signaling Technology Company of the U.S.
(§2) (3) polyacrylamide gel electrophoresis (SDS-PAGE): an equal amount of protein lysate sample was used to separate protein, film transfer, and blocking, treated with appropriate primary antibodies and secondary antibodies in sequence, and the film was washed, then the color was developed with ECL kit, and a blot protein band was detected by exposure of an X-ray film; and a Gel-Pro Analyzer was used for quantitative analysis of gray degree, optical density value of the control group and the drug treatment group in various concentration were respectively compared with that of internal reference, the obtained ratios were respectively compared with the control group, and the protein expression level was semi-quantified.

HDAC4 = HDAC4 enzyme activity in nuclear extracts of human tumor xenografts of treated mice; conditions: second value of the pair HDAC3 and HDAC4, SAHA 25 mg/kg
Experimental: For the detection of the effect of the drugs on enzyme activity of EZH2 and HDAC of in-vivo tumors, the tumors were separately excised after 6 h of medication, total proteins and nucleoproteins were extracted separately to detect and analyze the activity of the enzyme.
(2) 50 μl of diluted sample solution was added into each reaction well, the plate was sealed with a plate-sealing film and reacted at room temperature for 30 min;
(3) the plate-sealing film was carefully peeled off, the liquid was removed, dried, 150 μl of washing liquid was added into each well, stood for 30 s, then the liquid was removed, repeated twice, and dried;
(4) 2 μl of HDAC enzyme or tumor tissue nuclear extracts was respectively uniformly mixed with 28 μl of diluted sample solution, added into the wells, the plate was sealed with the plate-sealing film and reacted at 37° C. for 60 min;
(5) the plate was washed for three times, wherein the operation was the same as that in (3); and a diluted antibody capture working solution was added into each reaction well according to 50 μl/well and reacted on a shaking bed at room temperature for 60 min;
(6) the plate was washed for four times, wherein the operation was the same as that in (3);
(7) a diluted antibody detection working solution was added into each reaction well according to 50 μl/well and reacted at room temperature for 30 min;
(8) the plate was washed for five times, wherein the operation was the same as that in (3);
a color developing agent was added according to 100 μl/well, and performed dark development for 2-10 min;
(9) 50 μl of stop solution was added into each well for stopping the reaction when the color in the well with a standard product turned blue with medium intensity, the color immediately turned yellow from blue after the addition;
(10) the light absorbance (OD value) of each well was measured in sequence at the wavelength of 450 nm; wherein the measurement should be performed within 15 min after addition of the stop solution; and

[2] = test system: highly metastatic Lewis lung cancer cell lines; experiment: MTT growth inhibition, LLC cells; assay type: cell-based, mouse; conditions: Mus musculus, Lewis lung carcinoma, 72 h after treatment, read-out: Drug concentration (IC50) at which 50% cancer cells survived
[3] = test system: human lung cancer cells H460; experiment: MTT growth inhibition, H460 cells; assay type: cell-based; conditions: NCI-H460, 72 h after treatment, read-out: Drug concentration (IC50) at which 50% cancer cells survived
[4] = test system: human liver cancer cells HepG2; experiment: MTT growth inhibition, HepG2 cells; assay type: cell-based; conditions: 72 h after treatment, read-out: Drug concentration (IC50) at which 50% cancer cells survived
Akt = experiment: Western Blotting, Akt level; assay type: cell-based; conditions: human liver cancer cells, Lewis lung cancer cells and other cancer cell lines and tumor tissues, read-out: Effective concentration (IC50) for inhibition of Akt
Description: as §1, §2

HDAC3 = experiment: Western Blotting, HDAC3 level; assay type: cell-based; conditions: human liver cancer cells, Lewis lung cancer cells and other cancer cell lines and tumor tissues, read-out: Effective concentration (IC50) for inhibition of HDAC3
Description: as §1, §2

[5] = test system: human brain tumor cells Daoy; experiment: MTT growth inhibition, Daoy cells; assay type: cell-based; conditions: Homo sapiens, 72 h after treatment, read-out: Drug concentration (IC50) at which 50% cancer cells survived
[6] = test system: human breast cancer cells MCF-7 xenograft; experiment: In-vivo growth of MCF-7 xenografts in nude mice; design: species or system BALB/c nude mice; conditions: Mus musculus, MCF7, ip, vs DMSO solvent control, read-out: Curative effect (inhibition rate %) of tumor weight
Experimental: RPMI1640 and DMEM culture solutions: Hyclone Company; inactivated fetal bovine serum: Hyclone Company, preserved at −20° C.; trypsin: Amersco Company; and 0.4% trypan blue: Sigma Company;
(3) Observation of growth of tumors in nude mice: the activities (including food intake, traits of urine and stool, mental state and the like) of the nude mice and the tumor growth time and growth situation of the transplanted tumors were observed every day, the body weight and the size of the tumors were measured once every 2-3 days. The long diameter a and the short diameter b (mm) of each tumor were measured by a vernier caliper to calculate the volume, wherein the volume V=π1/2·ab^2 (mm^3);
(4) sacrifice of animals: the mice were anesthetized and photoed after treatment experiments; the nude mice were sacrificed by breaking neck, the tumor tissues were stripped under sterile conditions and the weight of the tumors was weighed; and the effects of the drugs on pathology and toxicity of the various organs and tissues were detected.

Compound: CCNC(=O)CC[C@@H](NC(=O)c1cc2cc(Br)ccc2oc1=O)C(=O)OCC [Compound Id, (R)-2-(6-Br-2-oxo-2H-benzopyran-3-carboxamido)-5-ethylamino-5-oxo-pentanoic acid ethyl ester]
- IC50 [1]: 101 µM
- IC50 (Nuclear β-catenin): < 100 µM
- decrease of HDAC4 enzyme activity/inhibition rate (HDAC4; A549 tumor grown in vivo): 73%*(A549)-
- decrease of HDAC4 enzyme activity/inhibition rate (HDAC4; MCF7 tumor grown in vivo): 63%*(MCF7)
- decrease of HDAC4 enzyme activity/inhibition rate (HDAC4; MDA-MB231 tumor grown in vivo): 65%*(MDA-MB231)
- decrease of HDAC4 enzyme activity/inhibition rate (HDAC4; SMMC7721 tumor grown in vivo): 67%*(SMMC7721);
- IC50 [2]: 116 µM
- IC50 [3]: 101 µM
- IC50 [4]: 125 µM
- IC50 (Akt): < 100 µM
- IC50 (HDAC3): < 65 µM
- IC50 [5]: 128 µM
- inhibition in vivo at 60 mg/kg ([6]; 60 mg/kg intraperitoneal once a day): 56.6%
- inhibition in vivo at 90 mg/kg ([6]; 90 mg/kg intraperitoneal once a day): 66.9%
